Measured values taken from patent US9439910B2, “Fe(III)-pyrazine complex compounds for treatment and prophylaxis of iron-deficiency phenomena and iron-deficiency anaemia” (VIFOR (INTERNATIONAL) AG, priority 2012, dated 2016).

Tested on: Male NMRI (SPF) mice
Test: Fe utilization in mouse model (low-iron diet, oral administration by stomach tube)
Assay type: in vivo
Conditions: for Utilization n 15 d: mice fed low-iron diet (approx. 5 ppm iron) approx. 3 weeks, 2 mg iron/kg body weight/day by stomach tube, days 1-5 and 8-12, utilization on day 15 calculated from hemoglobin increase and body weight increase; for iron utilization compared to the pyridine comparative compound: same mouse model, comparison in words with the comparative example
Protocol: The excellent Fe utilizations that can be accomplished through the Fe complexes according to the invention were measured by means of the following mouse model. Male NMRI (SPF) mice (approximately 3 weeks old) were fed a low-iron diet (approx. 5 ppm iron) for approximately 3 weeks. The iron complexes were then administered to them by means of a stomach tube (2 mg iron/kg body weight/day) for 2 times 5 days, with an interruption of 2 days (days 1-5 and 8-12). 6 mice were the control group (negative control) and were administered with water instead. Utilization on day 15 was calculated from the hemoglobin increase and the body weight increase in accordance with the formula [formula]

Q: “Tris-(3,5,6-trimethylpyrazine-2-ol-1-oxide)iron(III)-complex [Example 4]” was tested. Which “Utilization n 15 d” value did it give?
A: Its value is 32 abs. %.

Q: And the “iron utilization compared to the pyridine comparative compound” value?
A: The value was “improved iron utilization”.

Q: Which “Utilization n 15 d” value does the source give for “Tris-(3,6-dimethylpyrazine-2-ol-1-oxide)-iron(III)-complex [Example 10]” here?
A: The value was 58 abs. %.

Q: And the “iron utilization compared to the pyridine comparative compound” value?
A: Its value is “improved iron utilization”.

Q: For “Tris-(3-methylpyrazine-2-ol-1-oxide)iron(III)-complex [Example 3]”, which “Utilization n 15 d” value is on record?
A: Its value is 77 abs. %.

Q: And the “iron utilization compared to the pyridine comparative compound” value?
A: The value was “improved iron utilization”.

Q: How did the “Utilization n 15 d” value turn out when “Tris-(5,6-dimethyl pyrazine-2-ol 1-oxide)iron(III)-complex [Example 2]” was run?
A: The value was 61 abs. %.

Q: What about the “iron utilization compared to the pyridine comparative compound” value of the same substance?
A: Its value is “improved iron utilization”.

Q: What does the source list for “Tris-(5-methylpyrazine-2-ol-1-oxide)iron(III)-complex [Example 5]”?
A: Utilization n 15 d: 37 abs. %; iron utilization compared to the pyridine comparative compound: improved iron utilization

Q: What does the source list for “Tris-(pyrazine-2-ol 1-oxide)iron(III)-complex [Example 1]”?
A: Utilization n 15 d: 56 abs. %; iron utilization compared to the pyridine comparative compound: significantly improved iron utilization
